The values that follow come from patent publication US11382880B2, “Method for improving digestive health” (Brightseed, Inc., priority 2019, dated 2022).

Molecules are shown by their SMILES.

In series [1] the target is T1, HNF4α (Homo sapiens, UniProt P41235).
T1 sequence (P41235 1-474): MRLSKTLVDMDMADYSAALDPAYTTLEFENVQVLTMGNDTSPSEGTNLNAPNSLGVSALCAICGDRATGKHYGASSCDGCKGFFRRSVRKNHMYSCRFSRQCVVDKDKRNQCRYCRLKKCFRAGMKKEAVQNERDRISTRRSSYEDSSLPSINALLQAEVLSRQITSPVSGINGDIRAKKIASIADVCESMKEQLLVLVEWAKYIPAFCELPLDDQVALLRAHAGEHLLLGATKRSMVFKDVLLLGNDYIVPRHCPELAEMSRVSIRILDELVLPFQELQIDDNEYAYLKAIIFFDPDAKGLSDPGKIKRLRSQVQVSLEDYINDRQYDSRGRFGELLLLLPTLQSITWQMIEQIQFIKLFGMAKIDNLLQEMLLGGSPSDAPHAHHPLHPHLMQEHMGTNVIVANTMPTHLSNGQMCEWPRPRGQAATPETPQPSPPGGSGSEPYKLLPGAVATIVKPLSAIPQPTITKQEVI
On the set-up: endogenous in cells; host or cells: T6PNE engineered pancreatic cells. The settings on record: Lee, et al. (2013); cited from earlier work.

Series [2] concerns the target T1, HNF4α. The series can be described thus: Insulin promoter-reporter assay measuring HNF4α activity (T6PNE engineered pancreatic cell). It counts as cell-based. The settings on record: for HNF4α modulator activity in screening: screening of predicted plant compounds in the HNF4α assay. More on the design: endogenous in cells; host or cells: T6PNE engineered pancreatic cells. The protocol: FIG. 1 illustrates a dose-response analysis of N-trans-caffeoyltyramine, N-trans-feruloyltyramine and p-coumaroyltyramine in an assay measuring insulin promoter activity. Dimethylsulfoxide (DMSO) and alverine (20 μM) were used as negative and positive controls, respectively.
The tyramine containing hydroxycinnamic acid amide of this disclosure are analogs of lead compounds identified in traditional screening assays for agents that modulate known signaling pathways. […] While not wishing to be bound by theory, it is believed that the tyramine containing hydroxycinnamic acid amides of this disclosure increase HNF4α activity as a result of higher affinity for the HNF4α binding site than the natural ligand, palmitic acid, which down regulates HNF4α activity. Accordingly, by increasing HNF4α activity, the compounds of this disclosure are of use in improving heal thy digestive function, thereby addressing the underlying pathogenesis of gastrointestinal disorders such as IBD, UC, and CD. Using the composition of this disclosure, health and well-being are improved and promoted.
Given the role of HNF4α in maintaining a healthy metabolism in humans, test compounds were screened for activity as HNF4α agonists (either direct or indirect effects). Using a known insulin promoter-reporter assay, Kiselyuk and colleagues (2010. J. Biomol. Screen 15(6): 663-70), screened a library of compounds for activity to promote insulin activation. […] The OTC promoter is known to be responsive to HNF4α in transient transfection assays (Inoue, et al. (2002) J. Biol. Chem. 277:25257-65).
Plant compounds in the top 10th percentile of similarity to the 18 target structures were selected and compounds predicted to be potential agonists of HNF4α activity given their chemical structural features were screened in the HNF4α assay. […] Due to hydroxyl derivatization of both phenyl rings, N-transcaffeoyltyramine is less lipophilic and therefore expected to be more bioavailable.

A further series relates to HNF4α mRNA. The series can be described thus: HNF4α mRNA levels by quantitative PCR. In kind it is cell-based. The settings on record: FIG. 2. The protocol: FIG. 2 illustrates the effect of N-trans-caffeoyltyramine, N-trans-feruloyltyramine and p-coumaroyltyramine on HNF4α mRNA levels as determined by quantitative PCR. DMSO and alverine (20 μM) were used as negative and positive controls, respectively.
Expression of Insulin and HNF4α. RNA was purified using a RNEASY® chromatographic separation and isolation kits (Qiagen), and converted to cDNA using the gScript™ cDNA SuperMix (Quanta Biosciences). Q-PCR was conducted with cDNA corresponding to 2 μg of RNA using an Optic on Real-Time System (MJ Research) and QPCR SuperMix (BioPioneer). See All mRNA values were normalized to 18S rRNA values and are expressed as fold changes over vehicle-treated control.

A short description of series [3]: Bioavailability determination in male C57BL/6 mice. The settings on record: mouse, whole blood, IV 2.0 mg/kg, oral 30.0 mg/kg, IP 30 mg/kg, route of the printed value not stated. It counts as in vivo. The protocol: Bioavailability Determinations. Male C57BL/6 mice were administered N-trans-caffeoyl tyramine or N-transferuloyl tyramine via IV, intraperitoneal or oral route (three mice for each route) (Table 2).
A blood sample from each mouse was drawn at 0.25, 0.5, 1, 2, 4, 6 and 24 hours after administration. An 8 μL aliquot of blood was used for analysis. After adding 200 μL of an internal standard comprising 100 ng/mL Labetalol, 100 ng/mL dexamethasone, 100 ng/mL tolbutamide, 100 ng/mL Verapamil, 100 ng/mL Glyburide, and 100 ng/mL Celecoxib in ACN, the mixture was vortex-mixed and centrifuged at 12000 rpm for 15 minutes at 4° C. to pellet precipitated protein. Four μL of the supernatant was injected for LC-MS/MS analysis. Bioavailability (%) was calculated using AUC0-inf (% AUCExtra<20%) or AUC0-last(% AUCExtra>20%) with nominal dose.

The next series deals with Paneth cells. The series can be described thus: Number of Paneth cells in the intestine of DIO mice. In kind it is in vivo. The settings on record: DIO mice (high fat diet). An excerpt:
FIG. 5 illustrates paneth cells are increased in the intestine of DIO mice treated with NCT.
(§1) Intestine from mice treated with DMSO or N-trans-caffeoyltyramine were examined histologically. Gross morphological appearance was unchanged. […] In both, HNF4α was highly expressed in the crypt, with much less being detectable in the villi (see FIG. 4). […] Paneth cells are specialized secretory cells that play a critical role in defenses against intestinal microbes. To that end, they secrete a variety of antimicrobial peptides. Of note, Paneth cells play an important role in IBD pathogenesis. High fat diet has been reported to reduce the number of Paneth cells, and our studies reproduced that finding (see FIG. 4), but the mechanism by which that occurs has not been understood.

The nature of another series: pH Stability Assessment. It counts as physicochemical. The settings on record: pH 2, 7.4, 8.5 and 10; 37° C.; 0.5 and 72 hours; HPLC peak area at 280 nm. As to the method: pH Stability Assessment. Individual stock solutions were prepared in DMSO at concentrations of 10 mg/mL. Four different buffer solutions were prepared to achieve solutions with a pH of 2, 7.4, 8.5 and 10. For each pH assay, 5 μL of stock solution was added to 245 μL of buffered solution to a 2 mL tube, vortexed and incubated in a 37° C. water bath. At each timepoint, 50 μL aliquots were taken, neutralized and analyzed via HPLC analysis using a DAD detector at 280 nm. The fold change of the peak area at 280 nm was analyzed for the initial and final timepoint, 0.5 and 72 hours, respectively.

In another series the test system is CaCo-2 cells. The series can be described thus: TNF-α induced tight junction damage in CaCo-2 monolayer, ZO-1 staining. In kind it is cell-based. The following applies: 200 ng or 300 ng TNF-α. The protocol: TNF-α is an inflammatory cytokine that increases intestinal tight junction permeability. To analyze the effect of N-trans-caffeoyltyramine on tight junctions, 200 ng or 300 ng TNF-α was added to a monolayer of epithelial CaCo-2 cells to induced tight junction damage. After TNF-α exposure, N-trans-caffeoyltyramine was added and tight junction formation was determined by antibody staining for zonula occludens (ZO) −1. […] The CaCo-2 cells was sorted for high TNF-α expression with compromised integrity of tight junctions. Increasing concentration of exogenous TNF-α from 200 ng to 300 ng reduced ZO-1 staining.

The subject of series [4] is HNF4α. Kind of series: Intestinal HNF4α expression in C57BL/6 mice after IP dosing. The following applies: IP twice a day for 14 days. In kind it is in vivo. As to the method:
Primary Antibodies. HNF4α antibodies were used (#sc-6556, Santa Cruz Biotechnology; Santa Cruz, Calif. and #3113, Cell Signaling Technology; Danvers, Mass.). For fluorescent imaging, samples were incubated with ALEXA FLUOR® 488 green-fluorescent dye or Rhodamine labeled anti-mouse, rabbit or goat and nuclei were counterstained with DAPI (4′,6-diamidino-2-phenylindole). […] were analyzed with a conventional inverted microscope (Olympus, PlanFl 40×/0.60) or with a confocal microscope equipped with a krypton/argon laser.
To confirm the in vivo […] samples were harvested and stained to visualize HNFα expression, ZO-1 and DAPI staining.

The next series relates to Intestine. Kind of series: Histological examination of intestine, gross morphology. In kind it is in vivo. The settings on record: mice treated with DMSO or N-trans-caffeoyltyramine.
Source text: as §1

The test system of series [5] is HNF4α. Kind of series: HNF4α expression in the intestine of DIO mice. It counts as in vivo. The following applies: villi and crypt.
Source text: FIG. 4 illustrates HNF4α is increased in the intestine of DIO mice treated with NCT.
as §1

Series [6] deals with T1, HNF4α. More on the design: endogenous in cells; host or cells: T6PNE engineered pancreatic cells. The following applies: Kiselyuk, et al. (2012); cited from earlier work.
For series [7], the target named is T1, HNF4α. The settings on record: cited from earlier work.

With `CCN(CCCc1ccccc1)CCCc1ccccc1` [Alverine], on HNF4α [1], the “Activity as HNF4α activators” value is “activity as HNF4α activators”.
Turning to `CC(Cc1cccc(C(F)(F)F)c1)NCCOC(=O)c1ccccc1` (stereo not shown) [Benfluorex], at HNF4α [1], the “Activity as HNF4α activators” value was “activity as HNF4α activators”.
As to `O=C(/C=C\c1ccc(O)c(O)c1)NCCc1ccc(O)cc1` [N-cis-caffeoyltyramine], the “HNF4α modulator activity in screening” value on HNF4α [2] is “able to act as HNF4α modulators”.
For `O=C(/C=C/c1ccc(O)cc1)NCCc1ccc(O)c(O)c1` [N-coumaroyldopamine], the “HNF4α gene expression (quantitative PCR)” value with HNF4α mRNA is “inactive”.
By bioavailability is commonly meant the share of a dose that reaches the circulation, judged against a reference dose that is usually intravenous. High values mean good availability, low ones poor availability. In the case of `O=C(/C=C/c1ccc(O)c(O)c1)NCCc1ccc(O)cc1` [N-trans-caffeoyltyramine], the bioavailability in series [3] was about 11%. Besides, the figures for the “Number of Paneth cells” value with Paneth cells and in the series on Paneth cells (listed as NCT) were “complete recovery in the number of Paneth cells” and “increased”, respectively. Also, in the series “pH Stability Assessment”, the “pH Stability” value is on record as “Acid Stable”. Besides, in the series with CaCo-2 cells, the “Effect on TNF-α reduced ZO-1 staining (tight junctions)” value is recorded as “reversed the effects of TNF-α on ZO-1”. The “Potency in activating HNF4α compared with Alverine” value on HNF4α [2] (FIG. 1, alverine 20 μM positive control) is “roughly an order-of-magnitude more potent than Alverine”. On HNF4α [2], the “HNF4α modulator activity in screening” value was “able to act as HNF4α modulators”. Moreover, the “HNF4α expression in intestinal lining” value in the series on HNF4α [4] is “induced HNF4α expression in the intestinal lining”. Also, the “HNF4α gene expression (quantitative PCR)” value in the series with HNF4α mRNA is listed as “upregulated”. In addition, in the series with Intestine, the “Gross morphological appearance of intestine” value was “unchanged”. The figures for the “HNF4α expression in intestine” value in the series on HNF4α [5] and in the series on HNF4α [5] (listed as NCT) were “large increase in HNF4α expression throughout” and “increased”, respectively.
On to `COc1cc(/C=C/C(=O)NCC(O)c2ccc(O)cc2)ccc1O` (stereo not drawn) [N-trans-feruloyloctopamine], for which, in the series on HNF4α mRNA, the “HNF4α gene expression (quantitative PCR)” value is “inactive”.
In the case of `COc1cc(/C=C/C(=O)NCCc2ccc(O)cc2)ccc1O` [N-trans-feruloyltyramine], the bioavailability in series [3] is about 7%. For the same compound, the “pH Stability” value in “pH Stability Assessment” is “Stable”. Moreover, the “HNF4α modulator activity in screening” value at HNF4α [2] is given as “able to act as HNF4α modulators”. Moreover, the “HNF4α gene expression (quantitative PCR)” value with HNF4α mRNA is “upregulated”.
Take `COc1cc(/C=C\C(=O)NCCc2ccc(O)cc2)ccc1O` [cis-feruloyltyramine]: the “HNF4α gene expression (quantitative PCR)” value with HNF4α mRNA was “inactive”.
As for `CCN(CCCCc1ccccc1)CCc1ccccc1` [compound 1], the “Insulin activation in insulin promoter-reporter screen” value at HNF4α [6] was “insulin activator”. Further, the “HNF4α agonistic activity in OTC promoter assay” value at HNF4α [7] was “HNF4α agonistic activity”.
Regarding `O=C(/C=C/c1ccc(O)cc1)NCCc1ccc(O)cc1` [p-coumaroyltyramine], the “pH Stability” value in “pH Stability Assessment” is “Acid Stable”. On HNF4α [2], the “HNF4α modulator activity in screening” value was “able to act as HNF4α modulators”. Further, in the series on HNF4α mRNA, the “HNF4α gene expression (quantitative PCR)” value is “upregulated”.
As for `O=C(/C=C/c1ccc(O)cc1)NCC(O)c1ccc(O)cc1` (stereo not shown) [pcoumaroyloctopamine], in the series on HNF4α mRNA, the “HNF4α gene expression (quantitative PCR)” value is “inactive”.
